Results as given in paper PMC4303209, “A novel phosphatidylinositol 3-kinase (PI3K) inhibitor directs a potent FOXO-dependent, p53-independent cell cycle arrest phenotype characterized by the differential induction of a subset of FOXO-regulated genes” (Breast Cancer Research : BCR, 2014).

Test system: MCF-7 breast cancer cells
Assay: Microarray gene expression analysis (Agilent whole human genome 4 x 44K; compound vs DMSO, LIMMA log2 fold change)
Assay type: cell-based
Settings: Apoptosis genes

Cn1ncc2c(N3CCOCC3)nc(-c3cccc(O)c3)nc21 [ETP-45658]
TBX1 log2FC (Gene 6899): -0.252
TBX5 log2FC (Gene 6910): 0.253
TBX3 log2FC (Gene 6926): -0.702
TCF7L2 log2FC (Gene 6934): 0.069
TDGF1 log2FC (Gene 6997): -0.229
PRDX2 log2FC (Gene 7001): 0.238
TERF1 log2FC (Gene 7013): 0.607
TERT log2FC (Gene 7015): -0.174
TFAP2A log2FC (Gene 7020): -0.422
TFAP2B log2FC (Gene 7021): -0.228
TFAP4 log2FC (Gene 7023): 0.268
TGFA log2FC (Gene 7039): -0.305
TGFB1 log2FC (Gene 7040): -0.640
TGFB3 log2FC (Gene 7043): 0.297
TGFBR1 log2FC (Gene 7046): 0.107
TGFBR2 log2FC (Gene 7048): 0.848
TGM2 log2FC (Gene 7052): -0.663
THBS1 log2FC (Gene 7057): -0.941
THRA log2FC (Gene 7067): 0.422
TIA1 log2FC (Gene 7072): 0.264
TIAL1 log2FC (Gene 7073): 0.293
TIAM1 log2FC (Gene 7074): -0.410
TIMP1 log2FC (Gene 7076): -0.529
TJP1 log2FC (Gene 7082): 0.201
TLE1 log2FC (Gene 7088): 0.258
TLR2 log2FC (Gene 7097): -0.108
TLR3 log2FC (Gene 7098): 0.853
NR2E1 log2FC (Gene 7101): -0.094
TMF1 log2FC (Gene 7110): 0.560
TNF log2FC (Gene 7124): -1.647
TNFAIP1 log2FC (Gene 7126): -0.176
TNFAIP3 log2FC (Gene 7128): -0.659
TNFRSF1A log2FC (Gene 7132): -1.037
TOP2A log2FC (Gene 7153): 0.987
TP53 log2FC (Gene 7157): -0.193
TP53BP2 log2FC (Gene 7159): 0.300
TP73 log2FC (Gene 7161): -0.503
TPD52L1 log2FC (Gene 7164): 0.379
TPT1 log2FC (Gene 7178): 0.799
HSP90B1 log2FC (Gene 7184): 0.583
TRAF1 log2FC (Gene 7185): -0.690
TRAF3 log2FC (Gene 7187): -0.696
TRAF5 log2FC (Gene 7188): 0.441
TRAF6 log2FC (Gene 7189): -0.110
TRIO log2FC (Gene 7204): 0.329
TRPS1 log2FC (Gene 7227): 0.712
PHLDA2 log2FC (Gene 7262): -2.933
TWIST1 log2FC (Gene 7291): 0.401
TNFRSF4 log2FC (Gene 7293): -0.061
TYRO3 log2FC (Gene 7301): -0.084
UBA52 log2FC (Gene 7311): 0.322
UBB log2FC (Gene 7314): 0.069
UBC log2FC (Gene 7316): 0.294
UBE2B log2FC (Gene 7320): 0.582
UBE2D3 log2FC (Gene 7323): -0.312
UCN log2FC (Gene 7349): 0.210
UCP2 log2FC (Gene 7351): 0.279
UNG log2FC (Gene 7374): -0.235
VAV1 log2FC (Gene 7409): 0.573
VAV2 log2FC (Gene 7410): 0.047
VCP log2FC (Gene 7415): -0.341
VDAC1 log2FC (Gene 7416): -0.389
VDR log2FC (Gene 7421): -0.801
VEGFB log2FC (Gene 7423): -0.219
VHL log2FC (Gene 7428): 0.156
WFS1 log2FC (Gene 7466): -0.738
WNT5A log2FC (Gene 7474): 0.075
WNT7A log2FC (Gene 7476): -0.084
WNT7B log2FC (Gene 7477): -0.527
WNT10B log2FC (Gene 7480): -0.451
WNT11 log2FC (Gene 7481): -0.151
WNT9A log2FC (Gene 7483): 0.073
WRN log2FC (Gene 7486): 0.441
WT1 log2FC (Gene 7490): -0.635
XDH log2FC (Gene 7498): 0.061
XPA log2FC (Gene 7507): 0.451
XRCC2 log2FC (Gene 7516): -0.596
XRCC4 log2FC (Gene 7518): 0.589
YWHAB log2FC (Gene 7529): 0.414
YWHAE log2FC (Gene 7531): 0.239
YWHAG log2FC (Gene 7532): -0.492
YWHAH log2FC (Gene 7533): -0.469
YWHAZ log2FC (Gene 7534): -0.139
ZNF16 log2FC (Gene 7564): 0.343
PCGF2 log2FC (Gene 7703): -0.266
DAP3 log2FC (Gene 7818): 0.449
BTG2 log2FC (Gene 7832): -1.109
PAX8 log2FC (Gene 7849): 0.414
FZD5 log2FC (Gene 7855): -0.562
SCG2 log2FC (Gene 7857): 0.617
NR4A3 log2FC (Gene 8013): 0.735
LHX3 log2FC (Gene 8022): 0.038
RASSF7 log2FC (Gene 8045): 0.255
FOSL1 log2FC (Gene 8061): -2.502
CUL5 log2FC (Gene 8065): -0.432
FXR1 log2FC (Gene 8087): 0.876
HMGA2 log2FC (Gene 8091): -1.656
GDF5 log2FC (Gene 8200): -0.419
RBM10 log2FC (Gene 8241): -0.320
AXIN1 log2FC (Gene 8312): 0.481
NME5 log2FC (Gene 8382): 0.189
PLA2G6 log2FC (Gene 8398): -0.247
SRPX log2FC (Gene 8406): 0.110
STK24 log2FC (Gene 8428): -0.121
NSMAF log2FC (Gene 8439): 0.488
DYRK2 log2FC (Gene 8445): -0.546
CUL4A log2FC (Gene 8451): 0.552
CUL3 log2FC (Gene 8452): 0.137
CUL2 log2FC (Gene 8453): 0.454
CUL1 log2FC (Gene 8454): 0.479
KLF11 log2FC (Gene 8462): 1.337
OGT log2FC (Gene 8473): 0.232
IKBKG log2FC (Gene 8517): -0.398
CBX4 log2FC (Gene 8535): -0.217
API5 log2FC (Gene 8539): -0.382
YARS log2FC (Gene 8565): -0.265
MADD log2FC (Gene 8567): 0.423
UNC5C log2FC (Gene 8633): -0.082
AKR1C3 log2FC (Gene 8644): 0.209
NCOA1 log2FC (Gene 8648): 0.390
DYNLL1 log2FC (Gene 8655): -0.944
IRS2 log2FC (Gene 8660): 0.732
BECN1 log2FC (Gene 8678): 0.486
PEA15 log2FC (Gene 8682): 0.593
HYAL2 log2FC (Gene 8692): -0.387
TRADD log2FC (Gene 8717): 0.340
TNFRSF25 log2FC (Gene 8718): -0.499
RIPK1 log2FC (Gene 8737): -0.187
CRADD log2FC (Gene 8738): -0.101
HRK log2FC (Gene 8739): 0.385
RIPK2 log2FC (Gene 8767): 0.592
TNFRSF6B log2FC (Gene 8771): -1.094
FADD log2FC (Gene 8772): -0.522
TNFRSF18 log2FC (Gene 8784): -0.321
TNFRSF10D log2FC (Gene 8793): -0.444
TNFRSF10B log2FC (Gene 8795): -0.935
TNFRSF10A log2FC (Gene 8797): -0.657
TRIM24 log2FC (Gene 8805): 0.836
NRP1 log2FC (Gene 8829): -0.517
SYNGAP1 log2FC (Gene 8831): -0.373
SOCS2 log2FC (Gene 8835): 0.750
CFLAR log2FC (Gene 8837): -0.499
HDAC3 log2FC (Gene 8841): -0.217
ALKBH1 log2FC (Gene 8846): -0.105
TSC22D1 log2FC (Gene 8848): 0.485
CDK5R1 log2FC (Gene 8851): -0.154
ALDH1A2 log2FC (Gene 8854): 0.218
IER3 log2FC (Gene 8870): -1.789
ARHGEF7 log2FC (Gene 8874): 0.162
SPHK1 log2FC (Gene 8877): -0.334
SQSTM1 log2FC (Gene 8878): 0.788
SGPL1 log2FC (Gene 8879): -0.071
TAX1BP1 log2FC (Gene 8887): 1.376
BCL10 log2FC (Gene 8915): 0.158
MBD4 log2FC (Gene 8930): 0.489
NOL3 log2FC (Gene 8996): 0.514
